{
  "source": "paper PMC6271856",
  "about": "“Leishmanicidal Evaluation of Tetrahydroprotoberberine and Spirocyclic Erythrina-Alkaloids” (Molecules, 2014)",
  "key": {"[1]": {"tested_on": "Leishmania amazonensis promastigote forms", "assay": "Leishmanicidal MTT assay on promastigote forms", "assay_type": "cell-based", "conditions": "for IC50: Leishmania amazonensis, read-out: L. amazonensis IC50"}, "[2]": {"assay": "Macrophages in vitro cytotoxic assay (MTT)", "conditions": "mouse, J774A.1 macrophage cells"}, "[3]": {"assay": "in vitro", "conditions": "mouse"}, "[4]": {"conditions": "promastigote forms, 48 h treatment, MTT"}},
  "note": "Read-outs that look alike come from different tables or passages of the source.",
  "data": [
    {"smiles": "COc1cc2c(cc1OC)CN1CCc3ccc(OC)c(O)c3[C@@H]1C2", "note": "[Compound 2]", "values": [
      {"measurement": "IC50", "setting": "[1]; [4]", "value": "> 1000", "unit": "µg/mL"},
      {"measurement": "CC50 at 48 h", "setting": "[2]", "value": 96.6, "unit": "µg/mL"}
    ]},
    {"smiles": "COc1cc2c(cc1OC)C13CC(OC)C(=O)C=C1CCN3CC2", "note": "(stereo not drawn) [Compound 9, Erythratidinone]", "values": [
      {"measurement": "IC50", "setting": "[1]; 48 h", "value": "> 1000", "unit": "µg/mL"},
      {"measurement": "CC50", "setting": "[3]", "value": "> 1000", "unit": "µg/mL"}
    ]},
    {"smiles": "COC1C=CC2=CCN3CC(O)c4cc5c(cc4C23C1)OCO5", "note": "(stereo not drawn) [Compound 7, Erythrinine]", "values": [
      {"measurement": "SI (Selectivity Index = CC50 drug/IC50 drug)", "setting": "[1]", "value": 1.52},
      {"measurement": "IC50", "setting": "[1]; 48 h", "value": 39.5, "unit": "µg/mL"},
      {"measurement": "CC50", "setting": "[3]", "value": 60, "unit": "µg/mL"}
    ]},
    {"smiles": "COc1cc2c(cc1O)[C@]13C[C@@H](OC)C=CC1=CCN3CC2", "note": "[Compound 8, Erysovine]", "values": [
      {"measurement": "IC50", "setting": "[1]; 48 h", "value": "> 1000", "unit": "µg/mL"},
      {"measurement": "CC50", "setting": "[3]", "value": "> 1000", "unit": "µg/mL"}
    ]},
    {"smiles": "COC1C=CC2=CC(=O)N3C=Cc4cc5c(cc4C23C1)OCO5", "note": "(stereo not drawn) [Compound 6, Crystamidine]", "values": [
      {"measurement": "SI (Selectivity Index = CC50 drug/IC50 drug)", "setting": "[1]", "value": 0.82},
      {"measurement": "IC50", "setting": "[1]; [4]", "value": 71.5, "unit": "µg/mL"},
      {"measurement": "CC50", "setting": "[3]", "value": 59, "unit": "µg/mL"}
    ]},
    {"smiles": "CO[C@H]1C=CC2=CCN3CCc4cc5c(cc4[C@]23C1)OCO5", "note": "[Compound 3, erythraline]", "values": [
      {"measurement": "SI (Selectivity Index = CC50 drug/IC50 drug)", "setting": "[1]", "value": 1.06},
      {"measurement": "IC50", "setting": "[1]; 48 h", "value": 65.3, "unit": "µg/mL"},
      {"measurement": "CC50", "setting": "[3]", "value": 69.3, "unit": "µg/mL"}
    ]},
    {"smiles": "C[C@@H]1[C@H](O)[C@@H](C)/C=C/C=C/C=C/C=C/C=C/C=C/C=C/[C@H](O[C@@H]2O[C@H](C)[C@@H](O)[C@H](N)[C@@H]2O)C[C@@H]2O[C@](O)(C[C@@H](O)C[C@@H](O)[C@H](O)CC[C@@H](O)C[C@@H](O)CC(=O)O[C@H]1C)C[C@H](O)[C@H]2C(=O)O", "note": "[Amphotericin B, reference compound]", "values": [
      {"measurement": "IC50", "setting": "[1]; [4]", "value": 0.2, "unit": "µg/mL"}
    ]},
    {"smiles": "COC1C=CC2=CC(=O)N3CCc4cc5c(cc4C23C1)OCO5", "note": "(stereo not drawn) [Compound 4, 8-oxoerythraline]", "values": [
      {"measurement": "IC50", "setting": "[1]; [4]", "value": "> 1000", "unit": "µg/mL"},
      {"measurement": "CC50", "setting": "[3]", "value": "> 1000", "unit": "µg/mL"}
    ]},
    {"smiles": "COc1ccc2c(c1O)[C@@H]1Cc3cc4c(cc3CN1CC2)OCO4", "note": "[Compound 1]", "values": [
      {"measurement": "SI (Selectivity Index = CC50 drug/IC50 drug)", "setting": "[1]; CC50 J774 macrophages / IC50 L. amazonensis promastigotes", "value": 284.55},
      {"measurement": "IC50", "setting": "[1]; [4]", "value": 0.18, "unit": "µg/mL"},
      {"measurement": "CC50 at 48 h", "setting": "[2]", "value": 51.2, "unit": "µg/mL"}
    ]}
  ]
}
